Measured values reported in the supplement of paper PMC13380429.
± gives the standard deviation of the averaged measurements.

How the values were obtained:
Conditions in all cases: 72 h
U2OS [1] = assay: cell viability relative to DMSO; higher = less toxic
Caco-2 [2] = assay: as above
Calu-3 [3] = assay: as above
HepG2 [4] = assay: as above
Vero E6 [5] = assay: as above
U2OS [6] = assay: relative viability EC50 (midpoint between 100% and the lowest measured viability); higher = less toxic
Caco-2 [7] = assay: as above
Calu-3 [8] = assay: as above
HepG2 [9] = assay: as above
Vero E6 [10] = assay: as above
U2OS [11] = assay: drug sensitivity score (DSS) for viability; higher = more toxic; extreme values may be limits of the assay
Caco-2 [12] = assay: as above
Calu-3 [13] = assay: as above
HepG2 [14] = assay: as above
Vero E6 [15] = assay: as above

Row | Compound | cell viability (U2OS [1]; 1 nM) [%] | cell viability (U2OS [1]; 10 nM) [%] | cell viability (U2OS [1]; 100 nM) [%] | cell viability (U2OS [1]; 1000 nM) [%] | cell viability (U2OS [1]; 10000 nM) [%] | cell viability (Caco-2 [2]; 1 nM) [%] | cell viability (Caco-2 [2]; 10 nM) [%] | cell viability (Caco-2 [2]; 100 nM) [%] | cell viability (Caco-2 [2]; 1000 nM) [%] | cell viability (Caco-2 [2]; 10000 nM) [%] | cell viability (Calu-3 [3]; 1 nM) [%] | cell viability (Calu-3 [3]; 10 nM) [%] | cell viability (Calu-3 [3]; 100 nM) [%] | cell viability (Calu-3 [3]; 1000 nM) [%] | cell viability (Calu-3 [3]; 10000 nM) [%] | cell viability (HepG2 [4]; 1 nM) [%] | cell viability (HepG2 [4]; 10 nM) [%] | cell viability (HepG2 [4]; 100 nM) [%] | cell viability (HepG2 [4]; 1000 nM) [%] | cell viability (HepG2 [4]; 10000 nM) [%] | cell viability (Vero E6 [5]; 1 nM) [%] | cell viability (Vero E6 [5]; 10 nM) [%] | cell viability (Vero E6 [5]; 100 nM) [%] | cell viability (Vero E6 [5]; 1000 nM) [%] | cell viability (Vero E6 [5]; 10000 nM) [%] | relative viability EC50 (U2OS [6]) [µM] | relative viability EC50 (Caco-2 [7]) [µM] | relative viability EC50 (Calu-3 [8]) [µM] | relative viability EC50 (HepG2 [9]) [µM] | relative viability EC50 (Vero E6 [10]) [µM] | drug sensitivity score (U2OS [11]) | drug sensitivity score (Caco-2 [12]) | drug sensitivity score (Calu-3 [13]) | drug sensitivity score (HepG2 [14]) | drug sensitivity score (Vero E6 [15])
1 | O=C(CN1CCN(Cc2ccc3c(c2)OCO3)CC1)N1c2ccccc2Sc2ccccc21 [fenoverine] | 95.1 | 97.2 | 98.1 | 94.9 | 96.7 | 106 | 110 | 105 | 98.5 | 82.7 | 92.8 | 109 | 99.2 | 103 | 110 | 94.6 | 104 | 101 | 90 | 90.3 | 87.4 | 98.2 | 98.4 | 95 | 84.7 | > 10 | > 10 | > 10 | > 10 | > 10 | 0 | 0.6 | 0 | 0 | 0
2 | CC(=O)OCC(=O)[C@@]12OC(C)(C)O[C@@H]1C[C@H]1[C@@H]3C[C@H](F)C4=CC(=O)C=C[C@]4(C)[C@@]3(F)[C@@H](O)C[C@@]12C [fluocinonide] | 98.5 ± 1.5 | 96 ± 3.3 | 95.2 ± 1.4 | 96.7 ± 4.4 | 98.7 ± 4.3 | 91.5 | 95.6 | 93.8 | 104 | 99.2 | 102 ± 7.5 | 97.2 ± 6 | 87.8 ± 1.1 | 98.2 ± 3.8 | 101 ± 3.7 | 100 ± 2.5 | 95.5 ± 6 | 101 ± 8.3 | 104 ± 1.2 | 100 ± 6.2 | 101 ± 7.7 | 93.6 ± 0.57 | 97.9 ± 13 | 96.7 ± 5.4 | 98.5 ± 2.8 | > 10 | > 10 | > 10 | > 10 | > 10 | 0 | 0 | 0 | 0 | 0
3 | O=c1[nH]cnc2c([C@@H]3N[C@H](CO)[C@@H](O)[C@H]3O)c[nH]c12 [forodesine] | 102 | 97.6 | 94.4 | 103 | 98 | 103 | 98.4 | 98.4 | 101 | 98.6 | 92.4 | 89 | 97.2 | 91.5 | 94.4 | 106 | 104 | 110 | 92.6 | 102 | 103 | 96.8 | 96.8 | 97.2 | 94.7 | > 10 | > 10 | > 10 | > 10 | > 10 | 0 | 0 | 0 | 0 | 0
4 | CC(C)CN(C[C@@H](OP(=O)(O)O)[C@H](Cc1ccccc1)NC(=O)O[C@H]1CCOC1)S(=O)(=O)c1ccc(N)cc1 [fosamprenavir] | 101 | 94.8 | 95.9 | 94.2 | 109 | 93.7 | 91.5 | 96.5 | 98.1 | 99.6 | 113 | 103 | 107 | 98.2 | 108 | 99.8 | 106 | 102 | 93.5 | 98.7 | 102 | 101 | 99 | 100 | 96.5 | > 10 | > 10 | > 10 | > 10 | > 10 | 0 | 0 | 0 | 0 | 0
5 | COc1ccc(/C=C\c2cc(OC)c(OC)c(OC)c2)cc1OP(=O)(O)O [fosbretabulin] | 98.4 | 105 | 94 | 25.4 | 19.5 | 104 | 116 | 55.4 | 51.1 | 45.4 | 104 | 120 | 90.2 | 61.4 | 45.9 | 104 | 108 | 96.7 | 21.9 | 23.9 | 103 | 100 | 38.4 | 13 | 7 | 0.316 | 0.0584 | 0.457 | 0.285 | 0.0744 | 14.6 | 15.2 | 8.1 | 14.7 | 24.1
6 | N[C@@H](CSCCCO)C(=O)O [fudosteine] | 96.4 | 101 | 97.2 | 102 | 108 | 96.1 | 93.9 | 97.3 | 97.2 | 106 | 102 | 111 | 107 | 96.8 | 115 | 93.1 | 83.3 | 96.1 | 88.8 | 105 | 97.7 | 92.7 | 99.6 | 94.1 | 100 | > 10 | > 10 | > 10 | > 10 | > 10 | 0 | 0 | 0 | 0 | 0
7 | CC(C)=CCC/C(C)=C/CC/C(C)=C/CCC(=O)OC/C=C(\C)CCC=C(C)C [geranyl-farnesylacetate] | 98.4 | 95.3 | 102 | 96.7 | 103 | 95.6 | 95.8 | 106 | 91.4 | 98.9 | 99.1 | 94.6 | 96.8 | 93 | 96.4 | 101 | 107 | 90.8 | 112 | 110 | 104 | 102 | 94.4 | 105 | 115 | > 10 | > 10 | > 10 | > 10 | > 10 | 0 | 0 | 0 | 0 | 0
8 | CC(C)Cn1cnc2c(N)nc3ccccc3c21 [imiquimod] | 92.7 | 101 | 94.3 | 100 | 105 | 96.4 | 92.9 | 105 | 97.7 | 100 | 103 | 96 | 102 | 94.5 | 103 | 93.6 | 95.5 | 100 | 109 | 112 | 93.1 | 93.2 | 99 | 88.9 | 100 | > 10 | > 10 | > 10 | > 10 | > 10 | 0 | 0 | 0 | 0 | 0
9 | CNC1CC(c2ccc(Cl)c(Cl)c2)c2ccccc21 (stereo not given) [indatraline] | 100 | 102 | 94 | 102 | 90.1 | 99.7 | 103 | 95 | 103 | 86.8 | 102 | 96.3 | 93 | 107 | 89 | 97.6 | 96 | 96.4 | 99 | 92.7 | 99.4 | 95.4 | 96.4 | 99.4 | 91.7 | > 10 | > 10 | > 10 | > 10 | > 10 | 0 | 0.1 | 0 | 0 | 0
10 | Nc1nc(OCc2cc(Br)cs2)c2[nH]cnc2n1 [lomeguatrib] | 101 | 94.6 | 106 | 100 | 99.7 | 96.9 | 90.9 | 110 | 96.1 | 100 | 106 | 103 | 95.8 | 102 | 93 | 87.7 | 99.9 | 84 | 98.8 | 100 | 105 | 104 | 95.4 | 102 | 99.9 | > 10 | > 10 | > 10 | > 10 | > 10 | 0 | 0 | 0 | 0 | 0
11 | Cc1c(F)cc(C(=O)NC2CC2)cc1-c1ccc(C(=O)NCC(C)(C)C)cn1 [losmapimod] | 102 | 96.5 | 97.2 | 90.3 | 92.5 | 97 | 90.8 | 90.8 | 83.4 | 80.6 | 110 | 94.4 | 90.5 | 84 | 87.7 | 97.9 | 99.8 | 105 | 103 | 87.3 | 95.8 | 101 | 92.8 | 88.7 | 80.5 | > 10 | > 10 | > 10 | > 10 | > 10 | 0 | 2.4 | 2.1 | 0 | 1.3
12 | CN1CCN2c3c(cccc31)[C@@H]1CN(CCCC(=O)c3ccc(F)cc3)CC[C@@H]12 [lumateperone] | 96.6 | 102 | 94.1 | 99.6 | 89.1 | 96.5 | 100 | 97.1 | 97.6 | 78.8 | 101 | 112 | 98.3 | 110 | 92.3 | 100 | 91.6 | 103 | 101 | 80.7 | 98.4 | 92.7 | 101 | 99.6 | 97.3 | > 10 | > 10 | > 10 | > 10 | > 10 | 0 | 1 | 0 | 0.5 | 0
13 | CN(C)CCOC(=O)COc1ccc(Cl)cc1 [meclofenoxate] | 92.5 | 99.7 | 97.3 | 98.3 | 103 | 94.5 | 98.1 | 96.2 | 97.4 | 99.5 | 98 | 95.8 | 87.8 | 106 | 106 | 92.2 | 93.8 | 105 | 94.4 | 108 | 95.5 | 93.4 | 95.3 | 92.8 | 111 | > 10 | > 10 | > 10 | > 10 | > 10 | 0 | 0 | 0 | 0 | 0
